Laboratory results from PubChem BioAssay (NCI).
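1) Cells in 96-well plates. 2) Compound, 48 h, 5 concentrations. 3) Linear interpolation between surrounding doses. 4) Unreached endpoint = highest concentration. Here, GI50 denotes the concentration required for 50% inhibition of growth. TGI marks complete inhibition of growth.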

Key:
Test in all cases: NCI tumour cell line growth inhibition, 48 h
NCI-H460 lung = system: NCI-H460 lung
HCT-116 colon = system: HCT-116 colon
A549 NSCLC = system: A549 NSCLC
TK-10 renal = system: TK-10 renal
SN12C renal = system: SN12C renal
SW-620 colon = system: SW-620 colon
A498 renal = system: A498 renal
OVCAR-3 ovarian = system: OVCAR-3 ovarian
ACHN renal = system: ACHN renal
SK-MEL-5 melanoma = system: SK-MEL-5 melanoma

Row | Structure (SMILES) | TGI (NCI-H460 lung) [µM] | TGI (HCT-116 colon) [µM] | TGI (A549 NSCLC) [µM] | TGI (TK-10 renal) [µM] | TGI (SN12C renal) [µM] | TGI (SW-620 colon) [µM] | TGI (A498 renal) [µM] | GI50 (HCT-116 colon) [µM] | GI50 (OVCAR-3 ovarian) [µM] | TGI (OVCAR-3 ovarian) [µM] | GI50 (A549 NSCLC) [µM] | GI50 (TK-10 renal) [µM] | GI50 (SN12C renal) [µM] | GI50 (ACHN renal) [µM] | TGI (ACHN renal) [µM] | GI50 (SW-620 colon) [µM] | GI50 (A498 renal) [µM] | TGI (SK-MEL-5 melanoma) [µM] | GI50 (NCI-H460 lung) [µM] | GI50 (SK-MEL-5 melanoma) [µM]
1 | CC(C)(C)NC(=O)C12C3C4C1C1C2C3C41I (stereo not drawn) | > 100 | > 100 | > 100 | > 100 | > 100 | > 100 | > 100 |  |  |  |  |  |  |  |  |  |  |  |  | 
2 | CCCCC#Cc1c(I)n(C2OC(CO[Si](C)(C)C(C)(C)C)C3OC(C)(C)OC32)c(=O)[nH]c1=O (stereo not drawn) |  | 17.9 | 34.2 | 16.8 | 22.2 | 4.15 | 26 | 5.52 | 1.53 | 2.86 | 16.6 | 4.32 | 10.2 | 2.29 | 7.52 | 1.8 | 13.3 |  |  | 
3 | COC(=O)CC[C@@H](NC(=O)C(C)NC(=O)COC1C(O)C(COC(=O)CCCCCCCCCCNC(=O)c2ccc([N+](=O)[O-])c3[nH]c4cc(Br)ccc4c(=O)c23)OC(OCc2ccccc2)C1NC(C)=O)C(N)=O (stereo partly drawn) | > 100 | > 100 | > 100 | > 100 | > 100 | > 100 |  |  |  | > 100 |  |  |  |  | > 100 |  |  | > 100 |  | 
4 | CC(=O)OCC1OC(n2c(-c3ccc(N)cc3)cc(-c3ccco3)c(C#N)c2=O)C(OC(C)=O)C(OC(C)=O)C1OC(C)=O (stereo not drawn) |  | > 50 | > 50 | > 50 | > 50 | > 50 | > 50 |  |  | > 50 |  |  |  |  | > 50 |  |  | > 50 |  | 
5 | CC(=O)NC1=NC(=O)/C(=C/c2ccc(Cl)cc2Cl)N1C | > 100 | > 100 | > 100 | > 100 |  | > 100 |  |  |  | > 100 |  |  |  |  | > 100 |  |  | > 100 |  | 
6 | Cn1c(=O)c2[nH]c(Nc3ccccc3)nc2n(C)c1=O |  |  | > 10 | > 10 | > 10 | > 10 |  |  |  |  |  |  |  |  |  |  |  | > 10 |  | 
7 | OCCOCn1nc(-c2ccccc2)nc1-c1cnccn1 | > 100 | > 100 | > 100 | > 100 | > 100 | > 100 |  |  |  | > 100 |  |  |  |  |  |  |  | > 100 |  | 
8 | Cc1ccc(NC(=O)C(=O)C2C(=O)C3=C(CC2(C)C)NC2C=CC=CC2S3)c(C)c1 (stereo not drawn) | > 100 | > 100 | > 100 | > 100 | > 100 | > 100 |  |  |  |  |  |  |  |  | > 100 |  |  | > 100 |  | 
9 | COc1ccc(-n2cc(-c3ccc(Cl)cc3)[nH]c2=S)cc1Cl | > 100 | > 100 | > 100 | > 100 | > 100 | > 100 |  | 47.2 | 31.8 | > 100 | 46.6 | 47.3 | 39.1 | 33.1 | > 100 | > 100 |  | > 100 | 50.5 | 42.1
10 | CCOc1cccc2cccnc12 | > 100 | > 100 | > 100 | > 100 | > 100 | > 100 |  |  |  | > 100 |  |  |  |  | > 100 |  |  | > 100 |  | 
11 | CCC(C)CNC1=C(NC(C)=O)C(=O)c2ccccc2C1=O (stereo not drawn) | > 100 | > 100 | > 100 | > 100 | > 100 | > 100 |  |  |  | > 100 |  |  |  |  | > 100 |  |  | > 100 |  | 
12 | COC(=O)c1ccc2n[se]nc2c1 | > 100 | > 100 | > 100 | > 100 | > 100 | > 100 | > 100 |  |  |  |  |  |  |  | > 100 |  |  | > 100 |  | 
13 | O=C(CC1Sc2ccccc2NC1=O)Nc1ccc([N+](=O)[O-])cc1[N+](=O)[O-] (stereo not drawn) | 59.5 | 29.8 | 88.7 | > 100 | 29.7 | 32.4 |  |  |  | 31.5 |  |  |  |  | 30.3 |  |  | 33.4 |  | 
14 | COc1cc(C2CC(c3ccc(C)cc3)=NN2C(C)=O)ccc1Oc1ccnc2cc(Cl)ccc12 (stereo not drawn) |  | > 100 |  |  | > 100 | > 100 | 78 | 0.681 | > 100 | > 100 |  |  | > 100 | 2.76 | > 100 | > 100 | 13.1 | > 100 |  | > 100
15 | Nc1nc(Cl)cc2c1ncn2C1OC(CO)C(O)C1O (stereo not drawn) | > 100 |  | > 100 | > 100 |  | > 100 | > 100 |  | > 100 | > 100 | > 100 | > 100 |  | > 100 | > 100 | > 100 | > 100 | > 100 | > 100 | > 100
16 | CC(CC(C)[C@H]1CCC2[C@H]3C(CC[C@@]21C)[C@@]1(C)CCC(O)C[C@H]1C[C@@H]3O)C(=O)O (stereo partly drawn) | > 100 | > 100 | > 100 | > 100 | > 100 | > 100 | > 100 |  |  |  |  |  |  |  | > 100 |  |  |  |  | 
17 | COC(=O)C1=C(SC)SC2(C(=O)OC)C3C=C(C)C4C(N13)C42C(=O)OC (stereo not drawn) | > 100 | > 100 | > 100 | > 100 | > 100 | > 100 |  |  |  | > 100 |  |  |  |  | > 100 |  |  | > 100 |  | 
18 | COc1cc2c(cc1OC)[C@@H]1[C@H](C2=O)c2ccc([N+](=O)[O-])cc2C(=O)N1CCCBr |  | 0.0133 | 4.02 | 41.1 | 0.934 | > 100 | 2.14 | < 0.01 |  | 0.748 |  | 1.28 | 0.277 |  |  | 0.213 | 0.666 | 0.123 |  | < 0.01
19 | N#CC1=C(N)NC(=S)NC1c1ccc(-c2ccc(-c3nc4ccccc4s3)cc2)o1 (stereo not drawn) | 25.2 | 31.8 | > 50 | > 50 | > 50 | > 50 |  | 13 | > 50 | > 50 | 31.6 | 37.9 | > 50 | 28.1 | > 50 | 37.5 |  | 39.4 | 10.4 | 14.6
